Laboratory results as given in US8883793B2, “Tubulin inhibitors and methods of using the same” (Development Center for Biotechnology, priority 2010, dated 2014).

Legend:
biotinylated tubulin = experiment: Colchicine competitive-binding assay; settings: at 10 μM concentration, 3H-colchicine; for binding rate (%) (colchicine competitive-binding): left column pair of Table 7; for Inhibition rate (%) (colchicine competitive-binding): right column pair of Table 7
Description: The colchicine competitive-binding assay was done by using the Colchicine Site competitive Assay Kit (Cytoskeleton, Inc.), streptavidin-coated yttrium SPA beads(GE Healthcare, Inc.), and ^3H-colchicine(PerkinElmer, Inc.). Briefly, the binding mixture includes 1 μL^3H-labeled ligand (specific activity […]), and 1 μg biotinylated tubulin and 88 μg SPA beads in 200 μL assay buffer. The test compound and ^3H-labeled ligand were added before tubulin. After incubation at 37° C. for 2 hours, the SPA beads were allowed to settle down for 24 hours at room temperature, and scintillation counting was done on the TopCount Microplate Scintillation Counter.

KB cell = experiment: MTS assay, growth inhibition of KB cells; type: cell-based; settings: Homo sapiens, at 10 μM concentration, incubated for 72 h, read-out: Inhibition rate (%) (growth inhibition rate of MTS assay)
Description: MTS assay was performed in determining the growth inhibition of cancer cells. MTS ((3-(4,5-dimethylthiazol-2-yl)-5-(3-carboxymethoxyphenyl)-2-(4-sulfophenyl)-2H-tetrazolium)), in the presence of phenazine methosulfate (PMS) and reductases, produces a formazan product that has an absorbance maximum at 490-500 nm. MTS assays (and closely related MTT assay) are commonly used to measure cell viabilities or survivals.
Briefly, KB/Hela, NCI-H460, A375, Colo205, HCT-116, U937, MCF-7, MDA-MB-231, A549, H1975 cells were seeded into 96-well plate at 4000, 4000, 2000, 2000, 2000 cells/well. After 24 h for attachment, test compound was added into each well and incubated for 72 h. A total of 20 μl of MTS reaction reagent containing the MTS (Promega, Madison, Wis.) and PMS in a ratio of 20:1 was added into each well to react with dehydrogenase enzyme in survival cells. After 3 h, the absorbance at 490 nm was monitored using Emax precision microplate reader (Molecular Devices, Sunnyvale, Calif.).
The growth inhibition rate of MTS assay at KB cell of these compounds (at 10 μM concentration) are list in Table 5.

porcine brain tubulin = experiment: Tubulin polymerization assay; type: biochemical; settings: at 10 μM concentration
Description: In vitro tubulin polymerization assay was performed by using the Tubulin Polymerization Assay Kit (Cytoskeleton, Inc., Denver, Colo.) in a 96-well format, which used the polymerization of porcine brain tubulin in vitro in the presence of varying concentrations of the test compounds. Fluorescence measurements were obtained at 1-minute intervals over a 31-minute period. Fluorescent measurements were performed using excitation at 365 nm, and emission was measured at 440 nm using a Packard Fusion Alpha Microplate Analyzer. Data were analyzed as relative fluorescent units by GraphPad Prism 5 Demo.

SMILES	binding rate (%) (colchicine competitive-binding) (biotinylated tubulin)	inhibition at 10 µM (KB cell)	Inhibition rate (%) of tubulin polymerization (porcine brain tubulin)	Inhibition rate (%) (colchicine competitive-binding) (biotinylated tubulin)
O=C(CCc1ccccc1)Nc1ncc(Cc2ccc3c(c2)OCO3)s1 [Compound 6, N-(5-Benzo[1,3]dioxol-5-ylmethyl-thiazol-2-yl)-3-phenyl-propionamide]	63.6%	95.1%	–	–
COc1ccc(Cc2cnc(NC(=O)CCc3ccccc3)s2)cc1 [Compound 9, N-[5-(4-Methoxy-benzyl)-thiazol-2-yl]-3-phenyl-propionamide]	77.5%	96.1%	79.0%	–
COc1ccc(Cc2cnc(NC(=O)CCc3cccnc3)s2)cc1 [Compound 10, N-[5-(4-Methoxy-benzyl)-thiazol-2-yl]-3-pyridin-3-yl-propionamide]	88.6%	94.4%	88.7%	–
COc1ccc(Cc2cnc(NC(=O)CCc3ccc(F)cc3)s2)cc1 [Compound 11, 3-(4-Fluoro-phenyl)-N-[5-(4-methoxy-benzyl)-thiazol-2-yl]-propionamide]	62.4%	95.1%	–	–
O=C(CCc1ccc(F)cc1)Nc1ncc(Cc2ccc(F)cc2)s1 [Compound 12, N-[5-(4-Fluoro-benzyl)-thiazol-2-yl]-3-(4-fluoro-phenyl)-propionamide]	51.2%	96%	–	–
COc1ccc2cc(Cc3cnc(NC(=O)CCc4ccc(F)cc4)s3)ccc2c1 [Compound 13, 3-(4-Fluoro-phenyl)-N-[5-(6-methoxy-naphthalen-2-ylmethyl)-thiazol-2-yl]-propionamide]	60.0%	94.6%	–	–
COc1ccc(Cc2cnc(NC(=O)CCc3cccnc3)s2)cc1OC [Compound 17, N-[5-(3,4-Dimethoxy-benzyl)-thiazol-2-yl]-3-pyridin-3-yl-propionamide]	76.9%	95.9%	65.3%	–
O=C(CCc1ccccc1)Nc1ncc(Cc2ccc(C(F)(F)F)cc2)s1 [Compound 47, 3-Phenyl-N-[5-(4-trifluoromethyl-benzyl)-thiazol-2-yl]-propionamide]	55.4%	94.5%	57.2%	–
COc1cc(Cc2cnc(NC(=O)CCc3ccccc3)s2)cc(OC)c1OC [Compound 49, 3-Phenyl-N-[5-(3,4,5-trimethoxy-benzyl)-thiazol-2-yl]-propionamide]	64.9%	95.1%	–	–
COc1ccc(Cc2cnc(NC(=O)CCc3ccccc3)s2)c(OC)c1OC [Compound 52, 3-Phenyl-N-[5-(2,3,4-trimethoxy-benzyl)-thiazol-2-yl]-propionamide]	75.4%	94.5%	51.2%	–
COc1ccc(Cc2cnc(NC(=O)CCc3cccnc3)s2)c(OC)c1OC [Compound 53, 3-Pyridin-3-yl-N-[5-(2,3,4-trimethoxy-benzyl)-thiazol-2-yl]-propionamide]	78.7%	96.7%	62.2%	–
COc1ccc(Cc2cnc(NC(=O)CCc3ccc(F)cc3)s2)c(OC)c1OC [Compound 54, 3-(4-Fluoro-phenyl)-N-[5-(2,3,4-trimethoxy-benzyl)-thiazol-2-yl]-propionamide]	73.3%	96.1%	–	–
COc1ccc(Cc2cnc(NC(=O)CCc3ccc(-c4ccccc4)cc3)s2)c(OC)c1OC [Compound 55, 3-Biphenyl-4-yl-N-[5-(2,3,4-trimethoxy-benzyl)-thiazol-2-yl]-propionamide]	68.8%	95.1%	54.9%	–
COc1ccc(Cc2cnc(NC(=O)CCc3ccc(C)o3)s2)c(OC)c1OC [Compound 56, 3-(5-Methyl-furan-2-yl)-N-[5-(2,3,4-trimethoxy-benzyl)-thiazol-2-yl]-propionamide]	88.3%	94.7%	–	–
O=C(CCc1ccccc1)Nc1ncc(-c2ccc(F)cc2)s1 [Compound 58, N-[5-(4-Fluoro-phenyl)-thiazol-2-yl]-3-phenyl-propionamide]	–	85.8%	55.1%	–
Cc1nc(NC(=O)CCc2ccccc2)sc1-c1ccc(F)cc1 [Compound 59, N-[5-(4-Fluoro-phenyl)-4-methyl-thiazol-2-yl]-3-phenyl-propionamide]	76.3%	93.5%	–	–
Cc1nc(NC(=O)CCc2ccccc2)sc1Cc1ccc2c(c1)OCO2 [Compound 60, N-(5-Benzo[1,3]dioxol-5-ylmethyl-4-methyl-thiazol-2-yl)-3-phenyl-propionamide]	64.6%	95.1%	–	–
Cc1nc(NC(=O)CCc2ccc(F)cc2)sc1Cc1ccc2c(c1)OCO2 [Compound 61, N-(5-Benzo[1,3]dioxol-5-ylmethyl-4-methyl-thiazol-2-yl)-3-(4-fluoro-phenyl)-propionamide]	57.9%	90.9%	–	–
Cc1nc(NC(=O)CCc2cccnc2)sc1Cc1ccc2c(c1)OCO2 [Compound 62, N-(5-Benzo[1,3]dioxol-5-ylmethyl-4-methyl-thiazol-2-yl)-3-pyridin-3-yl-propionamide]	55.3%	96%	–	–
COc1cccc(CCC(=O)Nc2nc(C)c(Cc3ccc4c(c3)OCO4)s2)c1 [Compound 63, N-(5-Benzo[1,3]dioxol-5-ylmethyl-4-methyl-thiazol-2-yl)-3-(3-methoxy-phenyl)-propionamide]	63.3%	95.6%	–	–
Cc1ccc(CCC(=O)Nc2ncc(Oc3ccc(F)cc3)s2)o1 [Compound 64, N-[5-(4-Fluoro-phenoxy)-thiazol-2-yl]-3-(5-methyl-furan-2-yl)-propionamide]	54.4%	95.9%	–	–
O=C(CCc1ccccc1)Nc1ccc(Sc2ccccc2)cn1 [Compound 81, 3-Phenyl-N-(5-phenylsulfanyl-pyridin-2-yl)-propionamide]	–	95.1%	–	70.0%
Cc1ccc(CCC(=O)Nc2ncc(-n3ccnc3)cc2C)o1 [Compound 87, N-(5-Imidazol-1-yl-3-methyl-pyridin-2-yl)-3-(5-methyl-furan-2-yl)-propionamide]	–	93.9%	–	54.6%
O=C(/C=C/c1ccccc1)Nc1ncc(-c2ccccc2)cn1 [Compound 93, 3-Phenyl-N-(5-phenyl-pyrimidin-2-yl)-acrylamide]	–	96%	–	57.2%
O=C(/C=C/c1ccccc1)Nc1ncc(-c2ccc(F)cc2)cn1 [Compound 98, N-[5-(4-Fluoro-phenyl)-pyrimidin-2-yl]-3-phenyl-acrylamide]	–	81.9%	–	57.5%
COc1cccc(-c2cnc(NC(=O)/C=C/c3ccccc3)nc2)c1OC [Compound 101, N-[5-(2,3-Dimethoxy-phenyl)-pyrimidin-2-yl]-3-phenyl-acrylamide]	–	97.5%	–	56.9%
Cc1ccc(CCC(=O)Nc2ncc(-c3cccc4ccccc34)cn2)o1 [Compound 103, 3-(5-Methyl-furan-2-yl)-N-(5-naphthalen-1-yl-pyrimidin-2-yl)-propionamide]	–	94.1%	–	81.1%
O=C(CCc1ccccc1)Nc1ncc(-c2cccc3ccccc23)cn1 [Compound 104, N-(5-Naphthalen-1-yl-pyrimidin-2-yl)-3-phenyl-propionamide]	–	96.6%	–	61.3%
Cc1cc(-c2ccc(N(C)C)cc2)cnc1NC(=O)CCc1ccccc1 [Compound 119, N-[5-(4-Dimethylamino-phenyl)-3-methyl-pyridin-2-yl]-3-phenyl-propionamide]	–	95.1%	–	58.2%
